According to the NIST ThermoML archive (doi:10.1021/je800150h):

Experiment: xn = mol fraction of the nth substance listed
Conditions: 101 kPa, Liquid

CCO [ethanol] + O
Conditions	mass density [kg/m3]	viscosity [mPa·s]
268.1 K, x2 = 0.1	824.9	2.307
268.1 K, x2 = 0.2	838.2	2.805
268.1 K, x2 = 0.3	852.2	3.345
268.1 K, x2 = 0.4	867.7	3.991
268.1 K, x2 = 0.5	886.6	4.829
268.1 K, x2 = 0.6	908.1	5.931
268.1 K, x2 = 0.7	931.6	7.172
268.1 K, x2 = 0.8	951	7.549
268.1 K, x2 = 0.9	977.3	6.025
273.1 K, x2 = 0.1	820.3	2.059
273.1 K, x2 = 0.2	833.7	2.491
273.1 K, x2 = 0.3	847.7	2.938
273.1 K, x2 = 0.4	863.4	3.451
273.1 K, x2 = 0.5	882.1	4.123
273.1 K, x2 = 0.6	903.5	4.978
273.1 K, x2 = 0.7	927.1	5.947
273.1 K, x2 = 0.8	948	6.169
273.1 K, x2 = 0.9	975.6	4.997
278.1 K, x2 = 0.1	815.9	1.837
278.1 K, x2 = 0.2	829	2.21
278.1 K, x2 = 0.3	842.9	2.579
278.1 K, x2 = 0.4	858.8	2.98
278.1 K, x2 = 0.5	877.7	3.518
278.1 K, x2 = 0.6	899.3	4.176
278.1 K, x2 = 0.7	922.7	4.933
278.1 K, x2 = 0.8	945	5.037
278.1 K, x2 = 0.9	973.2	4.089
283.1 K, x2 = 0.1	811.4	1.639
283.1 K, x2 = 0.2	824.7	1.959
283.1 K, x2 = 0.3	838.5	2.26
283.1 K, x2 = 0.4	854.1	2.57
283.1 K, x2 = 0.5	872.8	2.995
283.1 K, x2 = 0.6	894.6	3.499
283.1 K, x2 = 0.7	918.7	4.093
283.1 K, x2 = 0.8	941.4	4.102
283.1 K, x2 = 0.9	970.8	3.34
288.15 K, x2 = 0.1	806.9	1.51
288.15 K, x2 = 0.2	820.1	1.721
288.15 K, x2 = 0.3	833.9	1.98
288.15 K, x2 = 0.4	849.5	2.212
288.15 K, x2 = 0.5	868.5	2.539
288.15 K, x2 = 0.6	889.6	2.922
288.15 K, x2 = 0.7	914.5	3.372
288.15 K, x2 = 0.8	938	3.433
288.15 K, x2 = 0.9	967.3	2.706
293.15 K, x2 = 0.1	802.1	1.355
293.15 K, x2 = 0.2	815.6	1.515
293.15 K, x2 = 0.3	829.4	1.715
293.15 K, x2 = 0.4	845	1.901
293.15 K, x2 = 0.5	863.8	2.153
293.15 K, x2 = 0.6	885.1	2.463
293.15 K, x2 = 0.7	909.9	2.842
293.15 K, x2 = 0.8	934.6	2.841
293.15 K, x2 = 0.9	963.7	2.268
298.15 K, x2 = 0.1	797.7	1.249
298.15 K, x2 = 0.2	811	1.353
298.15 K, x2 = 0.3	825.1	1.513
298.15 K, x2 = 0.4	840.6	1.651
298.15 K, x2 = 0.5	859.2	1.84
298.15 K, x2 = 0.6	880.6	2.089
298.15 K, x2 = 0.7	905.3	2.35
298.15 K, x2 = 0.8	931.3	2.45
298.15 K, x2 = 0.9	960.3	1.92
303.15 K, x2 = 0.1	793	1.156
303.15 K, x2 = 0.2	806	1.218
303.15 K, x2 = 0.3	820.6	1.356
303.15 K, x2 = 0.4	836.1	1.446
303.15 K, x2 = 0.5	854.8	1.598
303.15 K, x2 = 0.6	876.1	1.812
303.15 K, x2 = 0.7	901	2.04
303.15 K, x2 = 0.8	927.6	2.101
303.15 K, x2 = 0.9	956.2	1.656
308.15 K, x2 = 0.1	788.2	1.067
308.15 K, x2 = 0.2	801.4	1.11
308.15 K, x2 = 0.3	816	1.215
308.15 K, x2 = 0.4	831.4	1.296
308.15 K, x2 = 0.5	850.1	1.407
308.15 K, x2 = 0.6	871.4	1.582
308.15 K, x2 = 0.7	896.5	1.78
308.15 K, x2 = 0.8	923.8	1.772
308.15 K, x2 = 0.9	952.7	1.448
313.15 K, x2 = 0.1	783.6	0.92
313.15 K, x2 = 0.2	796.8	1.004
313.15 K, x2 = 0.3	811.1	1.096
313.15 K, x2 = 0.4	826.9	1.149
313.15 K, x2 = 0.5	845.2	1.27
313.15 K, x2 = 0.6	866.8	1.43
313.15 K, x2 = 0.7	892	1.56
313.15 K, x2 = 0.8	919.5	1.557
313.15 K, x2 = 0.9	949	1.271
318.15 K, x2 = 0.1	779	0.86
318.15 K, x2 = 0.2	792.2	0.925
318.15 K, x2 = 0.3	806.6	0.998
318.15 K, x2 = 0.4	822.4	1.039
318.15 K, x2 = 0.5	840.5	1.14
318.15 K, x2 = 0.6	862.1	1.27
318.15 K, x2 = 0.7	887.4	1.371
318.15 K, x2 = 0.8	915.5	1.369
318.15 K, x2 = 0.9	945.5	1.121
323.15 K, x2 = 0.1	774.3	0.76
323.15 K, x2 = 0.2	787.5	0.839
323.15 K, x2 = 0.3	801.9	0.902
323.15 K, x2 = 0.4	817.7	0.932
323.15 K, x2 = 0.5	835.8	1.02
323.15 K, x2 = 0.6	857.3	1.14
323.15 K, x2 = 0.7	883	1.17
323.15 K, x2 = 0.8	911.2	1.202
323.15 K, x2 = 0.9	942	0.975
